Test results taken from the NIST ThermoML archive (doi:10.1021/je900632q).
Numbers after ± are expanded uncertainties.

Test: xn = mol fraction of the nth substance listed
Conditions: 101 kPa, Liquid

CCCCn1cc[n+](C)c1.N#CN=C=[N-] [1-butyl-3-methylimidazolium dicyanamide] + O
Conditions	mass density [kg/m3]	viscosity [mPa·s]
278.15 K, x2 = 0	1075.8 ± 1.2	82.07 ± 2.3
278.15 K, x2 = 0.059	1075.3 ± 1.2	74.2 ± 1.6
278.15 K, x2 = 0.1963	1074.3 ± 1.2	58.7 ± 0.68
278.15 K, x2 = 0.2736	1072.8 ± 1.1	48.94 ± 0.69
278.15 K, x2 = 0.35	1071.1 ± 1.1	37.6 ± 0.53
278.15 K, x2 = 0.3974	1069.4 ± 1.1	31.98 ± 0.45
278.15 K, x2 = 0.4831	1066.2 ± 1.1	23.22 ± 0.33
288.15 K, x2 = 0	1069.4 ± 1.2	48.93 ± 0.71
288.15 K, x2 = 0.059	1068.9 ± 1.2	44.99 ± 0.65
288.15 K, x2 = 0.1963	1067.8 ± 1.1	36.45 ± 0.52
288.15 K, x2 = 0.2736	1066.4 ± 1.1	30.87 ± 0.44
288.15 K, x2 = 0.35	1064.6 ± 1.1	24.28 ± 0.35
288.15 K, x2 = 0.3974	1062.9 ± 1.1	20.88 ± 0.3
288.15 K, x2 = 0.4831	1059.6 ± 1.1	15.38 ± 0.22
298.15 K, x2 = 0	1063.1 ± 1.2	31.8 ± 0.47
298.15 K, x2 = 0.059	1062.5 ± 1.2	29.55 ± 0.43
298.15 K, x2 = 0.1963	1061.4 ± 1.1	24.4 ± 0.35
298.15 K, x2 = 0.2736	1059.9 ± 1.1	20.94 ± 0.3
298.15 K, x2 = 0.35	1059.1 ± 1.1	16.75 ± 0.24
298.15 K, x2 = 0.3974	1056.3 ± 1.1	14.52 ± 0.21
298.15 K, x2 = 0.4831	1052.9 ± 1.1	10.8 ± 0.16
308.15 K, x2 = 0	1056.8 ± 1.2	21.79 ± 0.32
308.15 K, x2 = 0.059	1056.2 ± 1.2	20.6 ± 0.3
308.15 K, x2 = 0.1963	1055 ± 1.1	17.29 ± 0.25
308.15 K, x2 = 0.2736	1053.6 ± 1.1	15 ± 0.22
308.15 K, x2 = 0.35	1051.6 ± 1.1	12.16 ± 0.18
308.15 K, x2 = 0.3974	1049.8 ± 1.1	10.61 ± 0.16
308.15 K, x2 = 0.4831	1046.2 ± 1.1	7.951 ± 0.12
318.15 K, x2 = 0	1050.6 ± 1.2	15.88 ± 0.24
318.15 K, x2 = 0.059	1050.1 ± 1.1	15.09 ± 0.23
318.15 K, x2 = 0.1963	1048.7 ± 1.1	12.82 ± 0.19
318.15 K, x2 = 0.2736	1047.3 ± 1.1	11.22 ± 0.17
318.15 K, x2 = 0.35	1045.2 ± 1.1	9.198 ± 0.14
318.15 K, x2 = 0.3974	1043.3 ± 1.1	8.072 ± 0.12
318.15 K, x2 = 0.4831	1039.6 ± 1.1	6.072 ± 0.095
328.15 K, x2 = 0	1044.4 ± 1.1	12.06 ± 0.18
328.15 K, x2 = 0.059	1043.9 ± 1.1	11.49 ± 0.17
328.15 K, x2 = 0.1963	1042.4 ± 1.1	9.885 ± 0.15
328.15 K, x2 = 0.2736	1041 ± 1.1	8.702 ± 0.13
328.15 K, x2 = 0.35	1038.8 ± 1.1	7.202 ± 0.11
328.15 K, x2 = 0.3974	1036.9 ± 1.1	6.346 ± 0.099
328.15 K, x2 = 0.4831	1033 ± 1.1	4.792 ± 0.078
338.15 K, x2 = 0	1038.2 ± 1.1	9.475 ± 0.15
338.15 K, x2 = 0.059	1037.7 ± 1.1	9.047 ± 0.14
338.15 K, x2 = 0.1963	1036.2 ± 1.1	7.852 ± 0.12
338.15 K, x2 = 0.2736	1034.7 ± 1.1	6.95 ± 0.11
338.15 K, x2 = 0.35	1032.4 ± 1.1	5.798 ± 0.092
338.15 K, x2 = 0.3974	1030.5 ± 1.1	5.126 ± 0.082
338.15 K, x2 = 0.4831	1026.4 ± 1.1	3.884 ± 0.065
348.15 K, x2 = 0	1032.1 ± 1.1	7.643 ± 0.12
348.15 K, x2 = 0.059	1031.5 ± 1.1	7.314 ± 0.12
348.15 K, x2 = 0.1963	1030 ± 1.1	6.397 ± 0.1
348.15 K, x2 = 0.2736	1028.5 ± 1.1	5.688 ± 0.091
348.15 K, x2 = 0.35	1026.1 ± 1.1	4.777 ± 0.078
348.15 K, x2 = 0.3974	1024.1 ± 1.1	4.237 ± 0.07
348.15 K, x2 = 0.4831	1019.8 ± 1.1	3.223 ± 0.056
358.15 K, x2 = 0	1025.8 ± 1.1	6.304 ± 0.1
358.15 K, x2 = 0.059	1025.3 ± 1.1	6.048 ± 0.097
358.15 K, x2 = 0.1963	1023.8 ± 1.1	5.322 ± 0.086
358.15 K, x2 = 0.2736	1022.3 ± 1.1	4.748 ± 0.078
358.15 K, x2 = 0.35	1019.8 ± 1.1	4.007 ± 0.067
358.15 K, x2 = 0.3974	1017.7 ± 1.1	3.577 ± 0.061
358.15 K, x2 = 0.4831	1013.2 ± 1.1	2.711 ± 0.05
